Measured values reported in US20120219500A1, “DIAGNOSTIC AGENT FOR INFECTIOUS DISEASES” (FUJIFILM RI PHARMA CO., LTD., priority 2009, published 2012).
Read-outs that look alike come from different tables or passages of the source.

How the values were obtained:
[1] = test system: attenuated Mycobacterium bovis (BCG, ATCC35734); format: cell-based; details: anaerobic, 37° C.
[2] = test system: Bacteroides fragilis (ATCC25285); assay: in vitro uptake of nitroimidazole derivative under anaerobic environment (absorbance of supernatant); format: cell-based; details: 37° C.
[3] = test system: E.coli (ATCC25922); assay: rat subcutaneous infection model, infected skin site; format: in vivo; details: SD rat, i.v. 6.5 hours before blood collection
Experimental: (§1) An in vivo assay was performed using a rat subcutaneous infection model. As the nitroimidazole derivative, Compound 1 or Compound 2 was used. As the microorganism, two strains of Bacteroides fragilis (ATCC25285, NCTC10581), which is susceptible to metronidazole, or E.coli (ATCC25922), which is not susceptible to metronidazole, was used. A 6-week-old male SD rat was administered with 5×10^9 cfu/0.1 ml bacteria suspended in physiological saline subcutaneously into the left thigh, and then served for evaluation four days later. Approximately 0.74 MBq of Compound 1 or Compound 2 was administered via the vena jugularis externa, and three hours later, blood was collected and tissues were excised. Also, for evaluation of inflammation in the infection model, approximately 0.15 MBq of [^67Ga]gallium citrate (FUJIFILM RI Pharma Co., Ltd.), which is a radioactive diagnostic agent for inflammation, was administered via the vena jugularis externa 6.5 hours before blood collection. The viable bacteria in the infected tissue was confirmed by smearing a part of the infected skin tissue on a medium and culturing it. Radioactivity (cpm) of each of ^67Ga and ^125I was measured in blood, in the infected skin site, and in the non-infection site on the skin. Radioactivity of ^125I was measured after attenuating the radioactivity of ^67Ga. The amount accumulated in each tissue and % ID/g (the ratio of radioactivity per tissue weight relative to the radioactivity administered) were calculated.

[4] = test system: Bacteroides fragilis (ATCC25285, NCTC10581); assay: as above; format: in vivo; details: SD rat, i.v. 6.5 hours before blood collection
Experimental: as §1

[5] = rat subcutaneous infection model, non-infected skin site; format: in vivo; details: SD rat, i.v. 6.5 hours before blood collection
Experimental: as §1, with “The viable bacteria in the infected tissue was confirmed by smearing a part of the infected skin tissue on a medium and culturing it.” left out

[6] = format: in vivo
[7] = test system: Bacteroides fragilis; assay: in vitro uptake of radionuclide-labeled nitroimidazole derivatives (gamma counter); format: cell-based; details: for uptake by obligate anaerobes compared with facultative anaerobes: 26 to 37 KBq radiolabeled derivative, anaerobic, 37° C., rate of uptake per 10^8 CFU (FIGS. 3-6)
[8] = test system: E.coli (ATCC25922); assay: in vitro uptake of nitroimidazole derivative under anaerobic environment (absorbance of supernatant); format: cell-based; details: 100 μM metronidazole, 37° C., rate of uptake per 10^8 CFU (FIG. 1)
[9] = approx. 0.74 MBq i.v., three hours later

## O=[N+]([O-])c1nccn1CC(O)CF (centres unmarked) [[^19F]FMISO, fluoromisonidazole]
[1]; [^19F]FMISO 0.09 mM, E.coli data from Example 1 (FIG. 10)
  uptake by acid-fast bacteria compared with E.coli: taken up in a greater amount by nitroimidazole derivative susceptible Mycobacterium tuberculosis in the resting stage of division than by nitroimidazole derivative non-susceptible E.coli
[2]; 70 μM [^19F]FMISO, B.fragilis vs E.coli (FIG. 2)
  uptake by obligate anaerobes compared with facultative anaerobes: taken up in a greater amount by obligate anaerobes than by facultative anaerobes

## O=C([O-])CC(O)(CC(=O)[O-])C(=O)[O-].[67Ga+3] [[^67Ga]gallium citrate]
[3]
  amount accumulated in the infected skin site/blood: 1.73±0.7
[4]; Bacteroides fragilis (ATCC25285)
  amount accumulated in the infected skin site/blood: 1.75 ±0.2
[4]; Bacteroides fragilis (NCTC10581)
  amount accumulated in the infected skin site/blood: 1.89±0.4
[5]
  amount accumulated in the non-infected skin site/blood: 0.41±0.06
[6]; rat, in vivo, iv
  amount accumulated in the inflammatory skin site/blood: 1.61±0.16

## fluorine-18-labeled fluoromisonidazole [[^18F]FMISO]
[7]
  uptake by obligate anaerobes compared with facultative anaerobes: taken up in a greater amount by obligate anaerobes than by facultative anaerobes

## Cc1ncc([N+](=O)[O-])n1CCO [Metronidazole, metronidazole]
[8]
  uptake by the facultative anaerobe E.coli: taken up in little amount
[2]; 100 μM metronidazole, rate of uptake per 10^8 CFU (FIG. 1)
  uptake by the obligate anaerobe Bacteroides fragilis: taken up in a large amount

## [^67Ga] Ga-DOTA-(metronidazole)2 [Compound 3]
[7]
  uptake by obligate anaerobes compared with facultative anaerobes: taken up in a greater amount by obligate anaerobes than by facultative anaerobes
[7]; 37° C. for 120 minutes, 0.43×10^8 to 6.75×10^8 CFU/mL viable Bacteroides fragilis (FIG. 7)
  rate of uptake versus number of viable obligate anaerobes: increased in a manner correlated with the number of viable obligate anaerobes

## O=C(NCCn1ccnc1[N+](=O)[O-])c1cccc(I)c1 [Compound 2, N1-[2-(2-nitro-1H-1-imidazolyl)ethyl]-3-iodobenzamide]
[7]
  uptake by obligate anaerobes compared with facultative anaerobes: taken up in a greater amount by obligate anaerobes than by facultative anaerobes
[1]; Compound 2 0.1 mM, rate of uptake per 10^7 CFU (FIG. 9)
  uptake by BCG compared with E.coli: clearly taken up in a greater amount by nitroimidazole derivative susceptible BCG than by non-nitroimidazole derivative susceptible E.coli
[6]; [9]
  amount accumulated in the inflammatory skin site/blood: 0.73±0.11

## Cc1ncc([N+](=O)[O-])n1CCNC(=O)c1cccc(I)c1 [Compound 1, [^125I]N1-[2-(2-methyl-5-nitro-1H-1-imidazolyl)ethyl]-3-iodobenzamide]
[7]
  uptake by obligate anaerobes compared with facultative anaerobes: taken up in a greater amount by obligate anaerobes than by facultative anaerobes
[6]; [9]
  amount accumulated in the inflammatory skin site/blood: 0.85±0.25
